Results: publication PMC4269767, “Ligand Binding Modulates the Structural Dynamics and Compactness of the Major Birch Pollen Allergen” (Biophysical Journal, 2014)
Counter-ions that a name gives are not always drawn.

What was measured:
Bet v 1.0101 [1] = biological target: T1, Bet v 1.0101 (Betula pendula, UniProt P15494); experiment: crystal structure (soaked); 1H-15N HSQC NMR titration; relaxation dispersion; format: binding
T1 construct: gene BETVIA
T1 sequence (P15494 2-160): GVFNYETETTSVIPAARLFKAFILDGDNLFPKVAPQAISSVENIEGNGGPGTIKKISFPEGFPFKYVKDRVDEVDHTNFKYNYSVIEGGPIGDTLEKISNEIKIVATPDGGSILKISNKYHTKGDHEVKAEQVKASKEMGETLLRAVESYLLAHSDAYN

Bet v 1.0101 [2] = biological target: T1, Bet v 1.0101; experiment: 1H-15N HSQC NMR titration; PFG diffusion NMR; relaxation dispersion; format: binding

Structure (SMILES) | Kd (Bet v 1.0101 [1]) | Kd (Bet v 1.0101 [2])
CCCCCCCCCCCCOS(=O)(=O)O [SDS, sodium dodecyl sulfate] | 7 µM | 
CCCCC(CC)CCC(CC(C)C)OS(=O)(=O)O (centres unmarked) [STS, sodium tetradecyl sulfate] |  | 1 µM
